Here are results for 29 compounds from patent US9862717B2 (Merck Patent GmbH, priority 2014, dated 2018).

SMILES strings stand for the structures. pIC50: −log10 of the molar value.

Broadly, the pIC50 is the IC50 on a negative log10 scale, so that one unit is a factor of ten. By IC50 is commonly meant the concentration needed to halve the response being measured.

T1 sequence (P49336 whole entry): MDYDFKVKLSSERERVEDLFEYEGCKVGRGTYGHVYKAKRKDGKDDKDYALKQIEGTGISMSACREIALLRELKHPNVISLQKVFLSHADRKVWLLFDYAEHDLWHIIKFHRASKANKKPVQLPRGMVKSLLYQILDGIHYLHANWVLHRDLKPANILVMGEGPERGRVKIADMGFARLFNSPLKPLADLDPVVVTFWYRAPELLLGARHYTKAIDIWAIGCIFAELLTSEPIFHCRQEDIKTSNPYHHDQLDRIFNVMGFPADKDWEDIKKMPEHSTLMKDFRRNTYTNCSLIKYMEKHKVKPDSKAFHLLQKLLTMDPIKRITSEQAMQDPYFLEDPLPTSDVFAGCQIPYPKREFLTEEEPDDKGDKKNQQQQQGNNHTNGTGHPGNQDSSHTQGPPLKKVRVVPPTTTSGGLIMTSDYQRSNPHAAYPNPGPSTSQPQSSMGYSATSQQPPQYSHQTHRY
T1 sequence (P24863 whole entry partner): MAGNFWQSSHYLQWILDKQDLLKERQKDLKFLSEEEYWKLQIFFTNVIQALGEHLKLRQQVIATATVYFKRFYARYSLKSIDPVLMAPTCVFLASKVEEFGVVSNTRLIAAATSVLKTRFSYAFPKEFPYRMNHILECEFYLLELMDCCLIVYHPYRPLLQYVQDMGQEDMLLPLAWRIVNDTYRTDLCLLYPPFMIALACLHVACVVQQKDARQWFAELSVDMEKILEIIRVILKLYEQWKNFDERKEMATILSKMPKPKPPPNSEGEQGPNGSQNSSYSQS

One experiment has as its target T1, CDK8/CycC (Homo sapiens, UniProt P49336).
T1 construct: purchased Invitrogen PV4402
As to the kind of experiment: FRET based Lanthascreen binding competition assay for CDK8 inhibitory activity. The note with it: CDK8 co-expressed with CycC; class symbols; read-out: IC50. The text has this: Biochemical Assay for CDK8 Inhibitory Activity FRET based Lanthascreen binding competition assay: A dye-labeled ATP competitive probe served as a FRET acceptor upon binding to CDK8 labeled with a strepavidin -Eu-chelate (via a biotinylated anti His antibody). The result was a fluorescence signal at 647 nm. In case this probe was competed by an inhibitor, such a signal cannot be generated any more. The CDK8 used for this assay was a protein co-expressed with CycC. The assay procedure for an assay in a 1536 well plate was performed according to the following: 2 μL CDK8/biotin-anti-His Ab/SA-Eu mix in Assay buffer were pipetted into the wells of a micro plate. 1 μL compound in 20 mM Hepes buffer/5% DMSO was added. The plate was shaken for 30 sec and incubated for 20 min at RT. 2 μL Alexa647-probe in assay buffer were added. The plate was shaken for 30 sec again and incubated for 60 min at RT in the dark. Then the plate was read out on a Perkin Elmer Envision (mode LANCE/TRF, excitation 340 nm emission 650 nm). […] The readouts were fitted to IC50 curves using Genedata Condoseo.
(In general: In TR-FRET formats the signal depends on donor and acceptor labels being close together.)
Take `Nc1n[nH]c2ccc(C(=O)N3CCC[C@@H]3c3ccccc3)cc12` [compound 91]: the pIC50 was 7.00 to 8.00.

For the compound `Nc1n[nH]c2ccc(C(=O)N3CCCCC3Cc3ccccc3)cc12` (stereo in doubt) [compound 86, (3-Amino-1H-indazol-5-yl)-((S)-2-benzyl-piperidin-1-yl)-methanone], the pIC50 is 7.00 to 8.00.

On to `O=C(c1ccc2[nH]ncc2c1)N1CCCC1c1ccc(Br)cc1` (racemic) [compound 154], for which the pIC50 is 7.00 to 8.00.

For `CSc1n[nH]c2ccc(C(=O)N3CCC[C@H]3c3ccc(Cl)cc3)cc12` [compound 210, [(S)-2-(4-Chloro-phenyl)-pyrrolidin-1-yl]-(3-methylsulfanyl-1H-indazol-5-yl)-methanone], the pIC50 is more than 8.00.

Consider `Nc1n[nH]c2ccc(C(=O)N3CCCC3c3ccc(Cl)c(F)c3)cc12` (centres unmarked) [compound 167, (3-Amino-1H-indazol-5-yl)-[2-(4-chloro-3-fluoro-phenyl)-pyrrolidin-1-yl] methanone], for which the pIC50 is 7.00 to 8.00.

Turning to `Nc1n[nH]c2ccc(C(=O)N3CCC[C@H]3c3ccccc3)cc12` [compound 131, (3-Amino-1H-indazol-5-yl)-((S)-2-phenyl-pyrrolidin-1-yl)-methanone], the pIC50 was 6.00 to 7.00.

With `Cc1n[nH]c2ccc(C(=O)N3CC[C@@H]3c3ccc(F)cc3)cc12` [compound 207, [(R)-2-(4-Fluoro-phenyl)-azetidin-1-yl]-(3-methyl-1H-indazol-5-yl)-methanone], the pIC50 was 7.00 to 8.00.

On to `Nc1n[nH]c2ccc(C(=O)N3CCCC3c3ccc(C(F)(F)F)cc3)cc12` (centres unmarked) [compound 112, (3-Amino-1H-indazol-5-yl)-[2-(4-trifluoromethyl-phenyl)-pyrrolidin-1-yl]-methanone], for which the pIC50 is 7.00 to 8.00.

Consider `Cc1n[nH]c2ncc(C(=O)N3CCCC[C@H]3c3ccc(F)cc3)cc12` [compound 17, [(S)-2-(4-Fluoro-phenyl)-piperidin-1-yl]-(3-methyl-1H-pyrazolo[3,4-b]pyridin-5-yl)-methanone], for which the pIC50 was 7.00 to 8.00.

Regarding `Cc1n[nH]c2ncc(C(=O)N3CCC[C@@H]3c3ccc(Cl)c(C#N)c3)cc12` [compound 253, 2-Chloro-5-[(R)-1-(3-methyl-1H-pyrazolo[3,4-b]pyridine-5-carbonyl)-pyrrolidin-2-yl]-benzonitrile], the pIC50 was 5.00 to 6.00.

On to `Cc1n[nH]c2ccc(C(=O)N3CCC[C@@H]3c3ccc(Br)cc3)nc12` [compound 53, [(R)-2-(4-Bromo-phenyl)-pyrrolidin-1-yl]-(3-methyl-1H-pyrazolo[4,3-b]pyridin-5-yl)-methanone], for which the pIC50 is 6.00 to 7.00.

With `Cc1n[nH]c2ncc(C(=O)N3C[C@H](N)C[C@H]3c3ccc(Cl)cc3)cc12` [compound 251, [(2S,4R)-4-Amino-2-(4-chloro-phenyl)-pyrrolidin-1-yl]-(3-methyl-1H-pyrazolo[3,4-b]pyridin-5-yl)-methanone], the pIC50 is 6.00 to 7.00.

`Cc1n[nH]c2ncc(C(=O)N3CCC[C@@H]3c3ccccc3Cl)cc12` [compound 37, [(R)-2-(2-Chloro-phenyl)-pyrrolidin-1-yl]-(3-methyl-1H-pyrazolo[3,4-b]pyridin-5-yl)-methanone]: the pIC50 was 6.00 to 7.00.

Regarding `Cc1n[nH]c2ncc(C(=O)N3CC[C@@H](N)[C@H]3c3ccc(F)cc3)cc12` [compound 144, [(2R,3R)-3-Amino-2-(4-fluoro-phenyl)-pyrrolidin-1-yl]-(3-methyl-1H-pyrazolo[3,4-b]pyridin-5-yl)-methanone], the pIC50 was 7.00 to 8.00.

Turning to `Cc1n[nH]c2ncc(C(=O)N3CCC[C@H]3c3cccc(C#N)c3)cc12` [compound 259, 3-[(S)-1-(3-Methyl-1H-pyrazolo[3,4-b]pyridine-5-carbonyl)-pyrrolidin-2-yl]-benzonitrile], the pIC50 is 6.00 to 7.00.

In the case of `O=C(c1cnc2[nH]nc(C3CC3)c2c1)N1CCC[C@H]1c1ccc(Cl)cc1` [compound 152, [(S)-2-(4-Chloro-phenyl)-pyrrolidin-1-yl]-(3-cyclopropyl-1H-pyrazolo[3,4-b]pyridin-5-yl)-methanone], the negative-log IC50 (pIC50) is more than 8.00.

For the compound `Nc1n[nH]c2ccc(C(=O)N3CCCC(c4ccc(Cl)cc4)C3)cc12` (centres unmarked) [compound 116, (3-Amino-1H-indazol-5-yl)-[3-(4-chloro-phenyl)-piperidin-1-yl]-methanone], the pIC50 was 6.00 to 7.00.

With `Cc1ccc(C2CCCN2C(=O)c2cnc3[nH]nc(C)c3c2)cc1` (centres unmarked) [compound 62, (3-Methyl-1H-pyrazolo[3,4-b]pyridin-5-yl)-(2-p-tolyl-pyrrolidin-1-yl)-methanone], the pIC50 was more than 8.00.

Take `Cc1n[nH]c2ncc(C(=O)N3CCC[C@@H](c4ccccc4)C3)cc12` [compound 139, (3-Methyl-1H-pyrazolo[3,4-b]pyridin-5-yl)-((S)-3-phenyl-piperidin-1-yl)-methanone]: the pIC50 is 6.00 to 7.00.

Consider `Cc1n[nH]c2ccc(C(=O)N3CCC[C@H]3c3ccc(F)cc3)nc12` [compound 242, (S)-(2-(4-fluorophenyl)pyrrolidin-1-yl)(3-methyl-1H-pyrazolo[4,3-b]pyridin-5-yl)methanone], for which the negative-log IC50 (pIC50) was more than 8.00.

As for `Cc1n[nH]c2cc(F)c(C(=O)N3CCC[C@H]3c3ccc(Cl)cc3)cc12` [compound 206, [(S)-2-(4-Chloro-phenyl)-pyrrolidin-1-yl]-(6-fluoro-3-methyl-1H-indazol-5-yl)-methanone], the pIC50 was more than 8.00.

Consider `Cc1n[nH]c2ncc(C(=O)N3CC(C)CC3c3ccc(C(F)(F)F)cc3)cc12` (centres unmarked) [compound 160, (3-Methyl-1H-pyrazolo[3,4-b]pyridin-5-yl)-[4-methyl-2-(4-trifluoromethyl-phenyl)-pyrrolidin-1-yl]-methanone], for which the negative logarithm of the IC50 (pIC50) was 6.00 to 7.00.

In the case of `Cc1n[nH]c2ccc(C(=O)N3CCC[C@@H]3c3ccc(Br)cc3)cc12` [compound 50, [(R)-2-(4-Bromo-phenyl)-pyrrolidin-1-yl]-(3-methyl-1H-indazol-5-yl)-methanone], the pIC50 is 6.00 to 7.00.

In the case of `Cc1n[nH]c2ncc(C(=O)N3CCC[C@@H]3c3cccc(C#N)c3)cc12` [compound 258, 3-[(R)-1-(3-Methyl-1H-pyrazolo[3,4-b]pyridine-5-carbonyl)-pyrrolidin-2-yl]-benzonitrile], the pIC50 was 5.00 to 6.00.

Consider `Cc1n[nH]c2ncc(C(=O)N3CCCCC3c3ccc(F)cc3)cc12` (centres unmarked) [compound 15, [2-(4-Fluoro-phenyl)-piperidin-1-yl]-(3-methyl-1H-pyrazolo[3,4-b]pyridin-5-yl)-methanone], for which the pIC50 was 7.00 to 8.00.

Still in this experiment, the particulars now being: CDK8 co-expressed with CycC; numeric value; read-out: IC50.
`Nc1n[nH]c2cnc(C(=O)N3CCC[C@H]3c3ccc(Cl)cc3)cc12` [compound 265]: the pIC50 was 6.47.

The experiment is the same for the next values; noted with them: IC50 [μM], CDK8 co-expressed with CycC; class symbols.
Regarding `Nc1n[nH]c2ccc(C(=O)N3CCC[C@@H]3c3ccc(Cl)cc3)cc12` [compound 80, (3-amino-1H-indazol-5-yl)-[(R)-2-(4-chloro-phenyl)-pyrrolidin-1-yl]-methanone], the IC50 was 0.1 to 1 µM.

`Cc1n[nH]c2cnc(C(=O)N3CCC[C@H]3c3ccc(Cl)cc3)cc12` [compound 190, [(S)-2-(4-Chloro-phenyl)-pyrrolidin-1-yl]-(3-methyl-1H-pyrazolo[3,4-c]pyridin-5-yl)-methanone] had an IC50 of 0.01 to 0.1 µM.

Turning to `Cc1n[nH]c2ccc(C(=O)N3CCC[C@@H]3c3ccc(Cl)cc3)cc12` [compound 47, [(R)-2-(4-Chloro-phenyl)-pyrrolidin-1-yl]-(3-methyl-1H-indazol-5-yl)-methanone], the half-maximal inhibitory concentration (IC50) lay in the range of 0.1 to 1 µM.
